Assay results: patent US9662308B2, “Orally bioavailable pentamidine prodrugs for the treatment of diseases” (Dritte Patentportfolio Beteiligungsgesellschaft mbH & Co. KG, priority 2008, dated 2017)
Values after ≈ are worked out from the molar mass of the structure shown. Like-named read-outs stand apart in the source and are kept apart here.

Legend:
[1] = Solubility in 50 mM phosphate buffer (HPLC); conditions: for solubility at 20 min: 50 mM phosphate buffer, thermodynamic from solid
Procedure: […] Subsequently, the undissolved part was removed by centrifugation (12,000 rpm) and the samples were immediately measured by HPLC. The evaluation of the solubility ensued via a calibration of N,N′-bis(succinyloxy)pentamidine (1) in DMSO.
Solubilities were determined analogously to the method described for compound 1.

[2] = test system: 9000×g supernatants, microsomes and mitochondria of human liver and kidney tissues; type: in vitro ADME; conditions: pH 6.3
Procedure: The activation of the prodrug was determined in vitro by means of subcellular enzyme preparations. 9000×g of supernatants, microsomes and mitochondria of human and porcine liver and kidney tissues were used as the enzyme preparations. The incubation batches were composed of […] prodrug, 1 mM NADH, 1 U esterase and 0.3 mg enzyme preparation dissolved in 150 μ100 mM phosphate buffer, pH 6.3. The incubation took place over 20 min in a shaking water bath at 37° C. The incubation was terminated by adding 150 μl of acetonitrile. The samples were subsequently shaken for 10 min and the precipitated protein was removed by centrifuging at 10,000 RPM for 15 min. The supernatant was measured by means of HPLC.

[3] = Procedure: For the stability analyses, a 0.1 mM solution of N,N′-bis(succinyloxy)pentamidine (1) was prepared in a 50 mM potassium phosphate buffer/DMSO (90/10, vol/vol). The analysis took place at pH values of 2.0, 7.4 and 9.0. One sample was taken and immediately analyzed by HPLC every 15 min over a period of 150 min.
(§1) The stability analyses were evaluated by means of the following HPLC method: […]

[4] = remark: listed apart in the source
Procedure: Samples were stored at room temperature and 70° C. over a defined period and examined for analyzing the prodrug (1) storage stability. The storage period was 6 months for the room temperature samples, 7 days for the 70° C. samples. The prodrug (1) content was determined by means of HPLC. For this purpose, the samples were dissolved in a mixture of equal parts of methanol and phosphate buffer (20 mM, pH 7.4) and immediately measured. The HPLC method corresponds to the method described under “Characterization of the prodrugs”.

[5] = rat, in vivo
[6] = remark: listed apart in the source
Procedure: Further analyses were conducted with human and murine plasma. 900 μl of the plasma was mixed with 100 μl of a 2 mM solution of N,N′-bis(succinyloxy)pentamidine (1). The final concentration of N,N′-bis(succinyloxy)pentamidine (1) was thus 0.2 mM. The samples were incubated at 37° C. in a shaking water bath and samples were taken after 0, 15, 30, 45, 60, 75, 90, 105 and 120 min. For this purpose, 100 μl was drawn in each case and mixed with 100 μl acetonitrile. The samples were shaken, centrifuged for 5 min and the supernatant was measured by HPLC.
as §1

leishmania = conditions: cited from earlier work
plasmodia = conditions: cited from earlier work
trypanosomes = conditions: cited from earlier work

Work on `CON=C(N)c1ccc(OCCCCCOc2ccc(C(N)=NOC)cc2)cc1` [N,N′-bis(methoxy)pentamidine] yielded a Solubility ([1]; pH 2.0) of 1304 ± 28 µM (≈ 522 µg/mL), a Solubility ([1]; pH 7.4) of 8 ± 1 µM (≈ 3.2 µg/mL) and a Solubility ([1]; pH 9.0) of 10 ± 2 µM (≈ 4 µg/mL).

For `N=C(NOC(=O)CCC(=O)O)c1ccc(OCCCCCOc2ccc(C(=N)NOC(=O)CCC(=O)O)cc2)cc1` [N,N′-bis(succinyloxy)pentamidine (1), 4,4′-Pentamethylendioxy-bis-[N-(carboxypropionyloxy)]benzamidine], the “Pentamidine formation (conversion rate)” value [2] was 0.04 ± 0.01 nmol/min/mg, the “Stability in the neutral and slightly alkaline pH range” value [3] was “stable” and the “Hydrolysis in aqueous medium” value ([3]; pH 2.0) was “rapid hydrolysis”. The “Hydrolysis into monosuccinyl pentamidine and pentamidine diamidoxime (3)” value ([3]; pH 7.4) was “only to a minor extent”, the “Hydrolysis into monosuccinyl pentamidine and pentamidine diamidoxime (3)” value ([3]; pH 9.0) was “only to a minor extent” and the “content pentamidine diamidoxime(3)” value ([4]; 70° C., 0 days) was 0.4 ± 0.01% area %. For the same molecule, the “content prodrug (1)” value ([4]; 70° C., 0 days) was 98.4 area %, the content succinyloxypentamidin ([4]; 70° C., 0 days) was 1.0 ± 0.02% area % and the “content pentamidine diamidoxime(3)” value ([4]; 70° C., 1 day) was 0.9 ± 0.01% area %. For the same molecule, the “content prodrug (1)” value ([4]; 70° C., 1 day) was 98.0 area %, the content succinyloxypentamidin ([4]; 70° C., 1 day) was 1.1 ± 0.03% area % and the “content pentamidine diamidoxime(3)” value ([4]; 70° C., 2 days) was 1.0 ± 0.01% area %. The “content prodrug (1)” value ([4]; 70° C., 2 days) was 97.6 area %, the content succinyloxypentamidin ([4]; 70° C., 2 days) was 1.3 ± 0.20% area % and the “content pentamidine diamidoxime(3)” value ([4]; 70° C., 4 days) was 1.1 ± 0.01% area %. For the same molecule, the “content prodrug (1)” value ([4]; 70° C., 4 days) was 97.9 area %, the content succinyloxypentamidin ([4]; 70° C., 4 days) was 0.9 ± 0.01% area % and the “content pentamidine diamidoxime(3)” value ([4]; 70° C., 7 days) was 1.5 ± 0.13% area %. The “content prodrug (1)” value ([4]; 70° C., 7 days) was 97.4 area %, the content succinyloxypentamidin ([4]; 70° C., 7 days) was 1.1 ± 0.26% area % and the “content pentamidine diamidoxime(3)” value ([4]; room temperature, 0 months) was 0.4 ± 0.01% area %. The “content prodrug (1)” value ([4]; room temperature, 0 months) was 98.4 area %, the content succinyloxypentamidine ([4]; room temperature, 0 months) was 1.0 ± 0.02% area % and the “content pentamidine diamidoxime(3)” value ([4]; room temperature, 0.5 months) was 0.5 ± 0.01% area %. For the same molecule, the “content prodrug (1)” value ([4]; room temperature, 0.5 months) was 98.4 area %, the content succinyloxypentamidine ([4]; room temperature, 0.5 months) was 1.0 ± 0.03% area % and the “content pentamidine diamidoxime(3)” value ([4]; room temperature, 1 month) was 0.2 ± 0.02% area %. The “content prodrug (1)” value ([4]; room temperature, 1 month) was 98.6 area %, the content succinyloxypentamidine ([4]; room temperature, 1 month) was 1.2 ± 0.16% area % and the “content pentamidine diamidoxime(3)” value ([4]; room temperature, 2 months) was 0.6 ± 0.16% area %. The “content prodrug (1)” value ([4]; room temperature, 2 months) was 97.5 area %, the content succinyloxypentamidine ([4]; room temperature, 2 months) was 1.8 ± 0.02% area % and the “content pentamidine diamidoxime(3)” value ([4]; room temperature, 3 months) was 0.6 ± 0.01% area %. The “content prodrug (1)” value ([4]; room temperature, 3 months) was 97.5 area %, the content succinyloxypentamidine ([4]; room temperature, 3 months) was 1.8 ± 0.04% area % and the “content pentamidine diamidoxime(3)” value ([4]; room temperature, 6 months) was 0.5 ± 0.01% area %. The “content prodrug (1)” value ([4]; room temperature, 6 months) was 97.8 area %, the content succinyloxypentamidine ([4]; room temperature, 6 months) was 1.5 ± 0.19% area % and the Relative oral bioavailability [5] was “up to 98%”. The Hydrolysis in plasma [6] was “markedly”, the Solubility [1] was 7500 µM (≈ 4290 µg/mL) and the Solubility ([1]; pH 2) was “hydrolysis”. For the same molecule, the “Solubility in acidic medium” value ([1]; pH 2) was “in the mM range”, the Solubility ([1]; pH 7.4) was 7500 ± 340 µM (≈ 4290 µg/mL) and the Solubility ([1]; pH 9) was 10780 ± 70 µM (≈ 6170 µg/mL).

For `N=C(N)c1ccc(OCCCCCOc2ccc(C(=N)N)cc2)cc1` [Pentamidine], the IC50 (leishmania) is listed as 820 to 2590 nM, the IC50 (plasmodia) is listed as 35 to 129 nM and the IC50 (trypanosomes) is listed as 0.8 to 3.2 nM.

In the case of `CC(C)[C@H](N)C(=O)O/N=C(\N)c1ccc(OCCCCCOc2ccc(/C(N)=N/OC(=O)[C@@H](N)C(C)C)cc2)cc1` [N,N′-bis(valoxy)pentamidine], the Solubility ([1]; pH 2.0) is reported as >35000 µM, the Solubility ([1]; pH 7.4) is reported as 157 ± 19 µM (≈ 89.6 µg/mL) and the Solubility ([1]; pH 9.0) is reported as 84 ± 18 µM (≈ 47.9 µg/mL).

`CC(=O)ON=C(N)c1ccc(OCCCCCOc2ccc(C(N)=NOC(C)=O)cc2)cc1` [N,N′-bis(acetoxy)pentamidine] showed a Solubility ([1]; pH 2.0) of 14 ± 8 µM (≈ 6.39 µg/mL), a Solubility ([1]; pH 7.4) of 2 ± 1 µM (≈ 0.913 µg/mL) and a Solubility ([1]; pH 9.0) of 3 ± 2 µM (≈ 1.37 µg/mL).

Molecule `N/C(=N\O)c1ccc(OCCCCCOc2ccc(/C(N)=N/O)cc2)cc1` [Pentamidine diamidoxime (3), Pentamidine diamidoxime] has a solubility at 20 min ([1]; pH 2, aqueous buffer) of 4210 ± 231 µM (≈ 1570 µg/mL), a solubility at 20 min ([1]; pH 7.4, aqueous buffer) of 12 ± 1 µM (≈ 4.47 µg/mL) and a solubility at 20 min ([1]; pH 9, aqueous buffer) of 4 ± 1 µM (≈ 1.49 µg/mL).

With `N=C(N)c1ccc(OCCCCCOc2ccc(C(N)=NO)cc2)cc1` [Pentamidine monoamidoxime] the Solubility ([1]; pH 2.0) was 22285 ± 1244 µM (≈ 7940 µg/mL), the Solubility ([1]; pH 7.4) was 1370 ± 291 µM (≈ 488 µg/mL) and the Solubility ([1]; pH 9.0) was 1257 ± 40 µM (≈ 448 µg/mL).

For `NC(=NO)c1ccc(OCCCCCOc2ccc(C(N)=NO)cc2)cc1` [N,N′-bis(dihydroxy)pentamidine], the Solubility ([1]; pH 2.0) was >35000 µM, the Solubility ([1]; pH 7.4) was 95 ± 8 µM (≈ 35.4 µg/mL) and the Solubility ([1]; pH 9.0) was 21 ± 3 µM (≈ 7.82 µg/mL).
